Where two headings read alike, the source gives them in different places.
Columns and labels:
HL-60 cells = settings: Chen et al., Chinese Pharmaceutical Journal 2001; cited from earlier work
[1] = tested on: "acetic contortions" in mice; experiment: Effect on analgetic action of Tramal and Analgin on the model "acetic contortions"; type: in vivo, white mongrel mice
Description: (§1) The tests were conducted on males of white mongrel mice weighing 22-24 grams. The specific pain response (“contortions”) were elicited by intraperitoneal administration to mice of 0.75% acetic acid solution. The following signs were taken into consideration: the number of seizure contractions of abdominal muscles accompanied by stretching the hind limbs and sagging the back. Analgetic effect was assessed by decrease in the number of contortions in animals in percent to the control for 15 minutes post administration of acetic acid. The technique of the tests is disclosed in Koster R., Anderson M., de Beer B.//Fed. Proc. 1959. V. 18. P. 412. Compounds under testing were administered intraperitoneally (using a probe) at a dose 10 μg/kg 60 minutes prior to injection of the acid. Diclofenac (10 mg/kg) was used as a reference drug. Analgetic effect was calculated according to the formula: […]
The studies were carried out in accordance with the technique presented in Example 18.

gastric mucosa of rats = experiment: Ulcerogenic effect on gastric mucosa; type: in vivo, outbreed rats; settings: 30 mg/kg once intragastrally, at 24 hours, M ± m
Description: The tests were carried out on females of outbreed rats weighing 300-320 grams. The compounds tested were administered once intragastrally at a dose 30 mg/kg to rats deprived of feed for 24 hours prior to the test. Animals in the control group were administered distilled water in the same volume. At 24 hours the animals were sacrificed and stomachs were extracted. An empty stomach was filled with 2% formalin solution and it was placed into a beaker with formalin. 30 minutes later, the stomach was opened along the great curvature, expanded on a slide, fixed and washed with distilled water. Using the magnifying glass MBS-9 (8-fold magnification) length and width of gastric mucosa defects was measured and area in mm^2 was calculated (1 division of the magnifying glass ruler=0.1 mm). Ulcerogenic effect of a substance was assessed by ulcerous lesion area of gastric mucosa according to the technique presented in Rukovodstvo po experimental'nomu (doklinicheskomu) izucheniju novykh pharmacologicheskikh veshchestv (the Guide on Experimental (pre-clinical) Study of Novel Pharmacological Substances)./Moscow. “Remedium” publishers. 2000, 398 pages.

[2] = tested on: carrageenan edema of rat paw; experiment: Carrageenan edema of rat paw; type: in vivo, outbreed white rats; settings: rats; 10% ointment; 4 hours post carrageenan
Description: The tests were conducted on males of outbreed white rats weighing 250-270 grams. The model of carrageenan edema was used which model is described in Winter et al. In: DeRosa M., Giroud J. P. Willoughby D. A. Studies of the mediators of acute inflammatory response induced in rats in different sites by carrageenan and turpentine.//J. Pharmacol. 1971. V. 104. P. 15-29.
0.1 ml 1% carrageenan solution (SERVA) was subplantarly injected into a right paw of rats. The animals were placed into individual chambers. […] Paw volume was measured using a pletismometer (Ugo Besile) at 4 hours post carrageenan administration. Therapeutic effect of the ointment was assessed by the inhibition degree of inflammatory reaction as compared to an intact left paw of the given animal and to a paw reaction of a control (untreated) group of rats. Inhibition of inflammatory reaction expressed in percent was calculated according to the formula: […]

mice, forced swimming = experiment: "Behavioral despair" test according to Porsolt; type: in vivo; settings: 50 mg/kg orally
Description: The “behavioral despair” test according to Porsolt [R. D. Porsolt, A. Bertin and M. Jalfre.//in mice: A primary Screening Test for Antidepressants. Arch. Int. Pharmacodyn., 1977, 229, p. 327-336] is a predictive test for drugs with antidepressant action.
Stress state in mice (weighing 27-30 grams) is induced by forced swimming. Animals are placed into a cylinder (height 25 cm, diameter 10 cm) filled to ⅓ with water at temperature 21-23° C. The animals cannot escape from the cylinder by themselves. Following a short time of activity the animals develop a so called “behavioral depression” characterized by hovering of animals, immobilization duration of which can be fixed. The experiment is carried out in two days. One a first day, animals are placed into the cylinder for 15 minutes (pre-test). After removal from water, the animals are dried and preparations under testing are administered. At 24 hours, the preparations are administered again and one hour later the animals are placed into the cylinder for 6 minutes. During first two minutes the animals are actively swimming; during the subsequent four minutes, behavioral depression develops manifested by immobilization (hovering) which is fixed for 4 minutes and is measure in seconds. Compound IX and the reference antidepressant drug Fluoxetin were administered orally at a dose 50 mg/kg.

"hot plate" test in mice = experiment: Analgetic activity on the model "hot plate"; type: in vivo, white mongrel mice; settings: for response vs control in vivo at 10 mg/kg / change in vivo at 10 mg/kg: Mus musculus; for response vs control in vivo at 10 mg/kg: percent of background, read-out: Latent time of NT (%); for change in vivo at 10 mg/kg: read-out: Analgesia (%)
Description: The tests were conducted on males of white mongrel mice weighing 22-24 grams. The animals were individually placed on a hot plate (manufactured by the firm “Ugo Basile”), a temperature of which remained constant and was equal to 55° C. The following first manifestations of pain reaction were recorded: licking paws, jumping up prior to administration of a substance (background parameters) and 0.5, 1, 2, 3 and 4 hours post administration of a substance. Substances were administered […] (using a probe). A weighed amount of a substance was thoroughly mixed in 0.1 ml Tween 80 until a solution was obtained, then normal saline was added up to a volume of 0.5 ml. Average latent time of nociception threshold (NT) was calculated in every group. The results obtained were expressed in percent of the background values. Analgetic effect (in %) was calculated according to the formula: A−100%=X, wherein A is a background parameter; X is analgetic effect (in %)
A is (time 0.5 to 4 hours post administration×100%): background time
As reference drugs, Analgin (150 mg/kg), Paracetamol (200 mg/kg), Ketorol (10 mg/kg), were used.

cyclooxygenase = experiment: In vitro effect on [14C]arachidonic acid metabolism in a cell-free homogenate of murine pulmonary tissue; type: biochemical, CBA mice; settings: compound 10^−4 M
Description: Studies of arachidonic acid metabolism was carried out on females CBA mice who where fed a standard vivarium fodder. Animals (mice) were sacrificed, lungs were extracted, homogenized in a glass homogenizer manufactured by the firm “Wheaton” (USA) at 4° C. in 10 volumes of 0.05 M Tris-HCl buffer. Aliquots (0.5 ml) of supernatant were incubated in 0.5 μCi [1-C^14]-arachidonic acid [C^14]-AA, “Amersham”, England; specific activity 50-60 μCi/mmole) at 37° C. for 30 minutes. Non-metabolized [αC^14]-AA and products of metabolism thereof were extracted in 20 volumes of chloroform and methanol mixture (1:1) in extraction efficacy not less than 90% assessed using [C^14]-PGF2α. [C^14]-AA and metabolites thereof were separated and identified using TLC (the plates Kieselgel 60 of the “Merck” firm, Germany) using as an organic phase, the system of solvents (ethylacetate, isooctane, acetic acid, water—110:50:20:100) and labeled standards. Densitometry of autoradiochromograms obtained on the X-ray film X-Omat AR (“Kodak”, USA) and HS 11 (“ORWO”, Germany), was performed on the densiscan KS 3 (“Kipp and Zonnen”, Holland). Quantitative analysis of individual eicosanoids was carried out using radiometry of fractions obtained by high-performance liquid chromatography (the HPLC-system of the “Gilson” form, France; the column ZORBAX C8 of the “Du Pont” firm, USA) and by elution of spots on TLC-plates. The tested compounds were administered at concentration 10^−4 M.

[3] = tested on: "acetic contortions" in mice; experiment: Analgetic activity on the model "acetic contortions"; type: in vivo, white mongrel mice; settings: dose 10 mg/kg (table title)
Description: as §1
wherein Ck is the number of contortions in the control group,
Co is the number of contortions in the test group.

O=C(Cc1ccccc1)N[C@@H](Cc1ccccc1)C(=O)O [XIX, phenylacetylphenylalanine]
cellular differentiation (HL-60 cells): inductor of cellular differentiation

COc1cccc(C2(O)CCCCC2CN(C)C)c1 (stereo not drawn) [Tramal, reference compound]
Analgetic effect, % ([1]; IX 10 mg/kg, Tramal 10 mg/kg, alone or combined): 53%

COc1ccc2c(c1)c(CC(=O)O)c(C)n2C(=O)c1ccc(Cl)cc1 [Indomethacin, reference compound]
Area of ulcerous lesion (gastric mucosa of rats): 7.3 ± 1.75 mm^2
Edema inhibition (%) [2]: 50.0%
Paw volume gain (%) [2]: 45.0%

CNCCC(Oc1ccc(C(F)(F)F)cc1)c1ccccc1 (stereo not drawn) [Fluoxetin, reference compound]
% change from the control (mice, forced swimming): −33%

Cc1c(N(C)CS(=O)(=O)[O-])c(=O)n(-c2ccccc2)n1C.[Na+] [Analgin, reference compound]
Analgetic effect, % ([1]; Analgin 50 mg/kg alone): 37.5%
Number of contortions for 15 minutes, M ± m ([1]; Analgin 50 mg/kg alone): 20.7 ± 2.3
Analgesia (%) ("hot plate" test in mice; Analgin 150 mg/kg, 30 minutes): 53.4%
Latent time of NT (%) ("hot plate" test in mice; Analgin 150 mg/kg, 30 minutes): 153.4%
latent time of nociception threshold, M ± m ("hot plate" test in mice; Analgin 150 mg/kg, 30 minutes): 7.44 ± 1.22 s
Analgesia (%) ("hot plate" test in mice; Analgin 150 mg/kg, 60 minutes): 50.3%
Latent time of NT (%) ("hot plate" test in mice; Analgin 150 mg/kg, 60 minutes): 150.3%
latent time of nociception threshold, M ± m ("hot plate" test in mice; Analgin 150 mg/kg, 60 minutes): 7.29 ± 0.71 s
Analgesia (%) ("hot plate" test in mice; Analgin 150 mg/kg, 120 minutes): 28.9%
Latent time of NT (%) ("hot plate" test in mice; Analgin 150 mg/kg, 120 minutes): 128.9%
latent time of nociception threshold, M ± m ("hot plate" test in mice; Analgin 150 mg/kg, 120 minutes): 6.25 ± 0.75 s
Analgesia (%) ("hot plate" test in mice; Analgin 150 mg/kg, 240 minutes): 10.3%
Latent time of NT (%) ("hot plate" test in mice; Analgin 150 mg/kg, 240 minutes): 110.3%
latent time of nociception threshold, M ± m ("hot plate" test in mice; Analgin 150 mg/kg, 240 minutes): 5.35 ± 0.38 s

O=C(Cc1ccc(O)cc1)NCCc1ccccc1
Prostanoids (cyclooxygenase; 37° C., 30 minutes, b308 reads these as % cyclooxygenase inhibition): −40
AA (arachidonic acid) (cyclooxygenase; 37° C., 30 minutes, change): +40
6-keto-PGF1α / PGF2α (cyclooxygenase; first of only four cells in the row): −45
TXB2 / PGE2 (cyclooxygenase; second of only four cells in the row): −33
latent time of nociception threshold, M ± m ("hot plate" test in mice; 10 mg/kg, 60 minutes post administration): 8.5 ± 0.27 s
latent time of nociception threshold, M ± m ("hot plate" test in mice; 10 mg/kg, 120 minutes post administration): 6.5 ± 1.16 s
response vs control in vivo at 10 mg/kg ("hot plate" test in mice; 1 h, 10 mg/kg, 60 minutes): 160%
change in vivo at 10 mg/kg ("hot plate" test in mice; 1 h, 10 mg/kg, 60 minutes): 59.6%
response vs control in vivo at 10 mg/kg ("hot plate" test in mice; 2 h, 10 mg/kg, 120 minutes): 123%
change in vivo at 10 mg/kg ("hot plate" test in mice; 2 h, 10 mg/kg, 120 minutes): 23.3%
inhibition in vivo at 10 mg/kg ([3]; Mus musculus, ip, 0.25 h, read-out: Analgetic effect (%)): 56.5%
response vs control in vivo at 10 mg/kg ([3]; Mus musculus, ip, 0.25 h, read-out: C, % to the control): 43.5%
C ± m (the number of contortions for 15 minutes) ([3]; 60 minutes prior to acetic acid): 16.0 ± 4.5
